Assay results reported in patent publication US20140329863A1 (priority 2011, published 2014).
In brackets after ≈: the same amount, converted by molar mass.

Columns and labels:
in vitro = settings: dog, MDCK-MDR1
[1] = Hepatic microsomal stability, human; settings: for half-life at 1 μM: human, pH 7.4
[2] = Hepatic microsomal stability, dog; assay type: in vitro ADME; settings: for half-life at 1 μM: beagle, liver microsomes, pH 7.4
Description: (§1) These were diluted 500-fold into 1 mL of microsomal incubation mixture to yield a final concentration of 1 μM. The incubation mixture was composed of 100 mM phosphate buffer, pH 7.4, and NADPH regenerating system (BD Biosciences NADPH Regenerating System Solutions A & B). This mixture was preincubated at 37° C. for 5 min in an Eppendorf Thermo mixer, and the reaction initiated by addition of 0.5 mg (25 μl of a 20 mg/mL solution) of liver microsomes. Aliquots (100 μl) were withdrawn at 0, 5, 15, 30, and 60 min, and added to 100 μA ACN containing internal standard. […] The percentage of solute remaining at the end of the incubation was used to determine species-specific values of scaled intrinsic clearance, hepatic clearance, and predicted hepatic extraction based upon the calculations below (Obach, 1999).
(§2) for which mg microsomal protein/gm liver was 45 for all species, and gm liver/kg body weight were 32 for dog, 88 for mouse, 40 for rat and 25 for human.
for which ER estimates the amount of compound cleared during a single pass through the liver (Low ER <0.3, moderate ER 0.3-0.7, high ER>0.7).

[3] = Hepatic microsomal stability, rat
[4] = Hepatic microsomal stability, mouse; settings: for half-life at 1 μM: CD-1, mouse, pH 7.4
[5] = Hepatic microsome stability, human; assay type: in vitro ADME
Description: (§3) Hepatic microsomal stability assays were performed in two stages. In the first set of experiments, aliquots of the DMSO solute stocks were diluted into ACN and then into assay buffer (PBS, pH 7.4, ±0.05% PS80). Final experimental solute concentrations were 1 μM (0.6% ACN, 0.01% DMSO). Commercially available mouse, rat, or human hepatic microsomes (˜0.5 mg/ml final concentration), and NADPH (1 mM) or PBS were added. The resulting mixture was incubated at 37° C., and aliquots removed at 0, 1, 10, 30 and 60 min, then quenched with ACN containing 2 μM carbamazepine (internal standard). […] Duplicate incubations were run for each time-point. The percentage of solute remaining at the end of the incubation was used to determine solute half-life.
as §1, with “μl” for “μA”, “{Obach, 1999 #9097}.” for “(Obach, 1999).”
as §2
(§4) Clh=(Q*Clint,scaled)/(Q+Clint,scaled)
(§5) for which Q was hepatic blood flow; values of 90 ml/min/kg for mouse, 66 ml/min/kg for rat, and 21 ml/min/kg for human were used.
(§6) for which ER estimates the amount of compound cleared during a single pass through the liver (Low ER<0.3, moderate ER 0.3-0.7, high ER>0.7).

[6] = Single-dose pharmacokinetics in FVB mice (oral gavage, IV)
[7] = Hepatic microsome stability, mouse; assay type: in vitro ADME; settings: mouse liver microsomes
Description: as §3
as §1, with “μl” for “μA”, “{Obach, 1999 #9097}.” for “(Obach, 1999).”
as §2, §4, §5, §6

[8] = system: PrP^Sc in dividing ScN2a-c13 cells; settings: read-out: EC50 (ELISA), reduction of PrP^Sc load; dividing ScN2a-c13 cells
[9] = female dog microsomes, read-out: t1/2 Dog Female
[10] = male dog microsomes, read-out: t1/2 Dog Male
[11] = PO 40 mg/kg, brain, female FVB mice
[12] = female, FVB, mouse, brain, po, 40 mg/kg
[13] = female, FVB, mouse, brain/plasma, po, 40 mg/kg
[14] = female, FVB, mouse, plasma, iv, 1 mg/kg
[15] = female, FVB, mouse, plasma, po, 40 mg/kg
[16] = female, FVB, mouse, plasma, po, 40 mg/kg, t1/2, PO 40 mg/kg, female FVB mice
[17] = IV 1 mg/kg, plasma, female FVB mice

With `Cc1ccnc(Nc2nc(-c3ccc(-c4ccccn4)s3)cs2)c1` [IND81, (4-Methyl-pyridin-2-yl)-[4-(5-pyridin-2-yl-thiophen-2-yl)-thiazol-2-yl]-amine] as the molecule, how does the Papp A→B (in vitro) read?
The Papp A→B was 16 ×10⁻⁶ cm/s.

And the Papp B→A (in vitro)?
The Papp B→A was 20.9 ×10⁻⁶ cm/s.

And the half-life at 1 μM ([1]; both, liver microsomes)?
Its half-life at 1 μM is 40 min.

What about the “% remaining after a 60-min incubation, Human” value ([1]; human liver microsomes, 60-min incubation) of the same molecule?
The value was 48%.

And the half-life at 1 μM ([1]; human liver microsomes)?
The half-life at 1 μM was 52 min.

What about the half-life at 1 μM ([1]; liver microsomes) of the same molecule?
Its half-life at 1 μM is 52 min.

What about the half-life at 1 μM [2, 9] of the same molecule?
The half-life at 1 μM was 26 min.

And the half-life at 1 μM [2, 10]?
Its half-life at 1 μM is 23 min.

And the half-life at 1 μM ([3]; Sprague-Dawley, rat, […], pH 7.4)?
Its half-life at 1 μM is 58 min.

What about the “% remaining after a 60-min incubation, Rat” value ([3]; […], 60-min incubation) of the same molecule?
Its value is 48%.

And the solubility (physchem; FaSSIF)?
The solubility was 3 µM (≈ 1.05 µg/mL).

And the solubility (physchem; cell culture media, plasma or biological fluid)?
The solubility was 207 µM (≈ 72.5 µg/mL).

And the solubility (physchem; pH 2 (HCl) buffer, pH 2, simulated gastric fluid)?
The solubility was 78 µM (≈ 27.3 µg/mL).

And the solubility (physchem; pH 7.4 (phosphate) buffer, pH 7.4, aqueous buffer)?
Its solubility is less than 1 µM.

And the half-life at 1 μM ([4]; liver microsomes)?
The half-life at 1 μM was 19 min.

And the half-life at 1 μM ([4]; mouse liver microsomes)?
Its half-life at 1 μM is 19 min.

What about the half-life at 1 μM ([4]; female, liver microsomes) of the same molecule?
Its half-life at 1 μM is 26 min.

What about the half-life at 1 μM ([4]; male, liver microsomes) of the same molecule?
The half-life at 1 μM was 23 min.

What about the “% remaining after a 60-min incubation, Mouse” value ([4]; mouse liver microsomes, 60-min incubation) of the same molecule?
Its value is 10%.

What about the “metabolism in HLM incubations” value ([5]; pooled human liver microsomes, 1 μM, 60 min, with or without CYP inhibitors) of the same molecule?
The value was “relatively high turnover”.

What about the AUClast [6, 11] of the same molecule?
The AUClast was 1592 ± 794 ng·h/g.

And the Kp ([6]; female, FVB, mouse, brain and plasma, po, 10 mg/kg)?
Its Kp is 5.5.

What about the Cmax [6, 12] of the same molecule?
Its Cmax is 568 ± 186 ng/g.

What about the Tmax [6, 12] of the same molecule?
Its Tmax is 30 min.

And the Kp [6, 13]?
The Kp was 5.53.

What about the AUC(0-t) [6, 14] of the same molecule?
The AUC(0-t) was 106 ± 12.4 ng·h/mL.

And the Cmax [6, 14]?
Its Cmax is 183 ± 96.6 ng/mL.

And the Tmax [6, 14]?
Its Tmax is 4.98 min.

What about the half-life ([6]; female, FVB, mouse, plasma, iv, 1 mg/kg, t1/2, IV 1 mg/kg, female FVB mice) of the same molecule?
Its half-life is 70.2 min.

What about the bioavailability ([6]; female, FVB, mouse, plasma, po, 10 mg/kg) of the same molecule?
Its bioavailability is 25 to 27%.

And the AUC(0-t) [6, 15]?
Its AUC(0-t) is 288 ± 136 ng·h/mL.

What about the Cmax [6, 15] of the same molecule?
Its Cmax is 152 ± 10.6 ng/mL.

What about the Tmax [6, 15] of the same molecule?
The Tmax was 30 min.

What about the bioavailability [6, 15] of the same molecule?
The bioavailability was 27.2%.

And the half-life [6, 16]?
Its half-life is 58.2 min.

And the “Brain exposure (AUClast) ranking” value ([6]; single oral dose, FVB mice, brain)?
The value was “highest AUC values in brain”.

And the “solubility in FaSSIF (in words)” value (fasted-state simulated intestinal fluid)?
Its value is “lower solubility”.

And the “solubility at pH 2.0 (in words)” value (pH 2 (HCl) buffer)?
The value was “higher solubility”.

What does the source list for `C(=N\Nc1ccc(-c2cnco2)cc1)/c1ccncc1` [IND54304, reference compound]?
half-life at 1 μM ([1]; both, liver microsomes): 130 min; Hepatic Extraction Ratio Human ([1]; human (mixed) microsomes, gender study): 0.34; hepatic extraction ratio (ER) [7]: moderate (moderate ER 0.3-0.7); half-life at 1 μM [2, 9]: 16 min; half-life at 1 μM [2, 10]: 20 min; Hepatic Extraction Ratio Dog Female ([2]; female dog microsomes): 0.80; Hepatic Extraction Ratio Dog Male ([2]; male dog microsomes): 0.79; Hepatic Extraction Ratio Rat Female ([3]; female rat microsomes): 0.27; Hepatic Extraction Ratio Rat Male ([3]; male rat microsomes): 0.27; EC50 [8]: 400 nM; Hepatic Extraction Ratio Mouse Female ([4]; female mouse microsomes): 0.64; half-life at 1 μM ([4]; female, liver microsomes): 34 min; Hepatic Extraction Ratio Mouse Male ([4]; male mouse microsomes): 0.71; half-life at 1 μM ([4]; male, liver microsomes): 25 min; hepatic extraction ratio (ER) ([5]; human liver microsomes): low (Low ER<0.3); AUClast [6, 17]: 219 ± 33.0 ng·h/mL; Cmax [6, 17]: 466 ± 37.4 ng/mL; Tmax [6, 17]: 4.98 min; t1/2 [6, 17]: 12.6 min; % F ([6]; PO 40 mg/kg vs IV 1 mg/kg, plasma, female FVB mice): 24.8%; AUClast [6, 11]: 282 ± 27.2 ng·h/g; Cmax [6, 12]: 123 ± 42.7 ng/g; Tmax [6, 12]: 120 min; Kp [6, 13]: 0.52; AUC(0-t) [6, 15]: 544 ± 16.8 ng·h/mL; Cmax [6, 15]: 220 ± 99.4 ng/mL; Tmax [6, 15]: 30 min; half-life [6, 16]: 60 min
